Our source for the IC50 values is patent publication US8008331B2, “Benzothiazol-2-one derivatives as lipase and phospholipase inhibitors” (Sanofi-Aventis, priority 2005, dated 2011).

What is called IC50 is the point on the concentration scale where inhibition reaches its midpoint.

Structures are written as SMILES.

In this test the target is T1, endothelial lipase (EL) (Homo sapiens, UniProt Q9Y5X9).
T1 construct: made in house; host or cells: recombinant cell lines (CHO, HEK293); concentrated conditioned medium
T1 sequence (Q9Y5X9 21-500): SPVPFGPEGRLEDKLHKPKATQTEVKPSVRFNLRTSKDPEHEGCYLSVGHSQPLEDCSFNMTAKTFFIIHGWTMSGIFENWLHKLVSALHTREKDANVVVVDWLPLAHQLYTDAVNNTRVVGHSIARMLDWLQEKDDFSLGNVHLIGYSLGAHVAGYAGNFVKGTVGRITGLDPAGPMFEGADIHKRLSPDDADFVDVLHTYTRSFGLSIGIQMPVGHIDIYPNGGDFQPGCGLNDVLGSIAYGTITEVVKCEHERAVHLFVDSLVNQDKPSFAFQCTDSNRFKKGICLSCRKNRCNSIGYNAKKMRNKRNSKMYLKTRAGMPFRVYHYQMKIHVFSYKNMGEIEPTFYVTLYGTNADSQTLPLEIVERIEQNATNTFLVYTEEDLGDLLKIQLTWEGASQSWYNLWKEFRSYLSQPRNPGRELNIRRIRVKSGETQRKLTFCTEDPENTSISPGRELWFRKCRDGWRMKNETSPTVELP
Briefly: Further EL inhibition assay. It is filed as biochemical. To be noted: phospholipase substrate (Bodipy-labelled phosphocholine), 37° C., 90 minutes, EL from conditioned medium of recombinant cell lines (CHO, HEK293). The source says:
EL is released as secretory protein in high concentration into cell culture medium (conditioned medium) by recombinant cell lines (CHO, HEK293). This is employed as enzyme solution after concentration.
The enzymatic activity is reduced as a function of the inhibitor concentration used, and the inhibitor concentration at which a half-maximum enzymatic activity is observed is called IC50.
The phospholipase-specific substrate 1,2-bis(4,4-difluoro-5,7-dimethyl-4-bora-3a,4a-diaza-s-indacene-3-undecanoyl)-sn-glycero-3-phosphocholine, (manufacturer Molecular Probes) is used to characterize the enzymatic activity of endothelial lipase and the effect of inhibitors. Hydrolysis of the A1 ester linkage of this phospholipid by the enzyme liberates the fluorescent dye Bodipy which can be detected after separation by thin-layer chromatography on an HPTLC plate (silica gel 60, Merck) or directly in the reaction vessel by measuring the fluorescence.
The substrate solution is prepared by dissolving 100 μg of 1,2-bis(4,4-difluoro-5,7-dimethyl-4-bora-3a,4a-diaza-s-indacene-3-undecanoyl)-sn-glycero-3-phosphocholine (manufacturer Molecular Probes) in 100 μl of DMSO and taking up in 2.4 mg of tripalmitin (Sigma) in 393 μl of chloroform which comprises 20 mg/ml DOP-choline (1,2-dioleoyl-sn-glycero-3-phosphocholine). 39.3 μl of this lipid mixture are transferred into a fresh reaction vessel, and the solvent is evaporated off. The lipid mixture is dissolved in 4 ml of 200 mM TRIS-HCl, 150 mM sodium chloride, pH=7.4, by sonication twice. The subsequent enzymic reaction takes place at 37° C. for 90 minutes. For this purpose, 20 μl of the substrate solution are incubated with 2 μl of inhibitor of appropriate concentration (dissolved in 10% DMSO, using 10% strength DMSO solution for control) and 2 μl of enzyme solution (conditioned medium). The 4 μl of the assay mixture are loaded onto an HPTLC plate (silica gel 60, Merck), and the liberated fluorescent dye is separated for detection with an eluent (diethyl ether:petroleum benzine:acetic acid [78:22:1]). After evaporation of the eluent, the plate is read in a fluorescence scanner. An increased liberation of the fluorescent dye in the uninhibited reaction is to be observed as a measure of the enzymic activity.
With `CCCCCCNC(=O)n1c(=O)sc2cc(Br)ccc21` [Example 5, 6-Bromo-2-oxobenzothiazole-3-hexylcarboxamide], the IC50 was determined as 0.435 µM.

Consider `CCCCCCNC(=O)n1c(=O)sc2ccccc21` [Example 1, 2-Oxobenzothiazole-3-hexylcarboxamide], for which the IC50 was 0.16 µM.

For the compound `Cc1ccccc1CNC(=O)n1c(=O)sc2ccccc21` [Example 3, 2-Oxobenzothiazole-3-(2-methylbenzyl)carboxamide], the IC50 amounted to 0.052 µM.

On to `CCCCCCNC(=O)n1c(=O)sc2ccc(C(F)(F)F)cc21` [Example 7, 2-Oxo-5-trifluoromethylbenzothiazole-3-hexylcarboxamide], for which the IC50 came to 0.12 µM.

Consider `Cc1cccc(CNC(=O)n2c(=O)sc3ccccc32)c1` [Example 4, 2-Oxobenzothiazole-3-(3-methylbenzyl)carboxamide], for which the IC50 amounted to 0.215 µM.

Regarding `CCCCCCCNC(=O)n1c(=O)sc2ccccc21` [Example 2, 2-Oxobenzothiazole-3-heptylcarboxamide], the IC50 came to 0.051 µM.

Consider `CCCCCCCNC(=O)n1c(=O)sc2ccc(Cl)cc21` [Example 6, 5-Chloro-2-oxobenzothiazole-3-heptylcarboxamide], for which the IC50 was 0.014 µM.
